Test results from patent publication US8785399B2, “Antibacterial peptides” (Spiderbiotech S.R.A., priority 2008, dated 2014).
In brackets after ≈: the same amount, converted by molar mass. Positions of bridges follow the written chain, without caps; N, C: chain ends. Non-standard residues stand in square brackets, D forms with d. Residues, ends and D or L forms follow the SMILES beside them. Chains are numbered I, II in the order given. Aoc = NCCCCCCCC(=O)O

How the values were obtained:
[1] = test system: E. coli ATCC 25922; experiment: MIC by broth microdilution, E. coli reference strain; format: cell-based, Escherichia coli; details: Table 4
Method: (§1) Determination of MIC. MICs were determined in MHB by the broth microdilution methodology, according to CLSI procedure (formerly NCCLS, Ref. 11) by using final bacterial inocula of 1-5×10^5 CFU/mL. Assays were performed in sterile 96-well microtiter plates with round bottom wells (Corning Costar). Plates were incubated at 37° C. and read after 20-24 h. MIC was defined as the lowest drug concentration causing complete suppression of visible bacterial growth. All compounds were dissolved in (5% v/v DMSO).
All natural aminoacids have been divided into three groups based on their chemical-physical properties. A total amount of 27 minilibraries, each one containing six peptide in equimolar amounts, were obtained and assayed against E. coli ATCC 25922 as reference strain. MIC (Minimum Inhibitory Concentration) is defined as the lowest concentration inhibiting 100% of visible growth.

[2] = In vitro cytotoxicity, MTT dye reduction assay, HeLa; format: cell-based; details: human, HeLa cells (human epithelial carcinoma)
Method: (§2) HeLa (Human epithelial carcinoma cell line), HepG2 (Human hepatocellular liver carcinoma cell line) and HaCat (human keratinocyte) were grown to confluence and then plated at 20,000, 12,500 and 30,000 cells per well (the optimal cell count for each cell line has been previously determined). After 24 hours, ID24 in DMEM without FBS was added at concentration ranging from 800 and 100 ug/ml. As positive controls 100 uL of cells washed with medium without serum that represent 100% viability and, as negative, 100 uL medium without serum were also added. After 24 hours of incubation at 37° C. in a 5% v/v CO2 atmosphere, 10 ul MTT Reagent [3-(4,5-dimethylthiazol-2-yl)-2,5-diphenyl […] bromide, final concentration 0.5 mg/mL) was added to each well and incubated for 2 to 4 hours. Solubilization of formazan, formed by metabolic reduction of MTT, was obtained using the stop mix solution (10% w/v sodium dodecyl sulphate, 45% v/v dimethyl formamide, adjusted to pH 4.5 with glacial acetic acid). The plates were read in a microplate spectrophotometer. (Biorad, Benchmark plus). Cultures exposed to ID24 or exposed to the medium alone were measured spectrophotometrically at dual wave-length (565-650 nm). The experiment was carried out in three replicates.

[3] = test system: Pseudomonas aeruginosa ATCC 27853; experiment: MIC by broth microdilution, P. aeruginosa reference strain; format: cell-based; details: Table 4
Method: as §1
These peptides were synthesized individually, in order to assay the activity of each sequence.

[4] = test system: Shigella; experiment: MIC vs clinical isolates, Shigella; format: cell-based; details: Shigella strain ND024108
Method: as §1
(§3) These compounds were tested against a large panel of Gram-negative clinical isolates and the relative MIC values were reported in Table 5 (parts 1-3)

[5] = test system: Proteus mirabilis; format: cell-based
Method: as §1, §3

[6] = test system: Pseudomonas aeruginosa; format: cell-based
Method: as §1, §3

[7] = test system: Klebsiella pneumoniae; format: cell-based
Method: as §1, §3

[8] = test system: Klebsiella oxytoca; format: cell-based
Method: as §1, §3

[9] = test system: Escherichia coli; format: cell-based
Method: as §1, §3

[10] = test system: Stenotrophomonas maltophilia; format: cell-based
Method: as §1, §3

[11] = test system: Acinetobacter baumannii; format: cell-based
Method: as §1, §3

[12] = test system: Serratia marcescens; format: cell-based
Method: as §1, §3

[13] = test system: Acinetobacter iwoffi; format: cell-based
Method: as §1, §3

[14] = test system: Enterobacter cloacae; format: cell-based
Method: as §1, §3

[15] = In vivo acute toxicity; design: species or system CD1 mice; details: for symptoms and behavioural alterations (Irwin Test): female CD1 mice
Method: 9-10 weeks female CD1 mice (Charles River Lab. Italia s.r.l. Via Indipendenza, 11-23885 Calco (LC), Italy), weighing on average 28.23 g on the day of experiment were used. Mice were housed for 3 days in a temperature and humidity controlled room before starting experiment, and were fed with standard laboratory chow and water ad libitum.
ID24 was dissolved and sonicated in 0.9% w/v NaCl sterile solution (Sigma-Aldrich) for human administration at the dose concentrations 20 and 40 mg/kg. Compound preparation was conducted just before administration.
Two doses of ID24 were administered with a single intraperitoneal injection to mice: 20 mg/kg and 40 mg/kg. Five animals were treated with each dose of antibiotic. Adverse symptoms were monitored daily for 7 days after injection.
Survivals and clinical/behavioural signs were recorded daily for 14 days.
Main behavioural parameters and clinical signs provided by Irwin Test (Ref. 13).

[16] = In vitro cytotoxicity, MTT dye reduction assay, HaCat; format: cell-based; details: human, HaCat cells (human keratinocytes)
Method: as §2

[17] = test system: E. coli EC47; format: cell-based, Escherichia coli
Method: Test and reference compounds, ID24 and colistin sodium methanesufonate (CMS) respectively, were dissolved in 0.1 M phosphate-buffered saline pH 6.9, at the required drug concentrations. Solutions were made just before administration, and stored at 4° C. until the end of scheduled treatments, ID24 MIC value on E. coli EC47 strain is 2 ug/mL [MIC was determined by the broth microdilution method in Muller Hinton medium (NCCLS guidelines), using bacterial inoculum of approximately 10^5 CFU/mL].

[18] = In vitro cytotoxicity, MTT dye reduction assay, HepG2; format: cell-based; details: human, HepG2 cells (human hepatocellular liver carcinoma)
Method: as §2

[19] = test system: P. aeruginosa ATCC 27853 24-hours biofilm; format: cell-based, Pseudomonas aeruginosa; details: ATCC 27853, 4 h
Method: An exponential phase inoculum of Pseudomonas aeruginosa ATCC 27853 of approximately 1×10^7 CFU/mL was poured into a reagent reservoir of Innovotech plates for MBEC™ High-throughput assay (Innovotech Inc., Edmonton, Canada). 22 mL of inoculum were added to the trough and the peg lid was placed onto. The device was placed on the shaking incubator at 80 rpm in a humidified box at 37° C.
After 24 hours of incubation, the pegs were rinsed into a plate containing 200 uL of physiological solution to remove loosely adherent planktonic cells from the biofilm and then were put in a microplate containing 200 uL of different antibiotic solutions serially diluted in TSB.
Following 4 hours of contact and incubation at 37° C. on the shaking incubator, the peg lid was removed from the trough and submersed in a rinse plate for 2 minutes.
Then a new microtitre with saline solution containing the sample pegs was put in the tray of the ultrasonic cleaner and sonicated for 30 minutes to disrupt biofilm from the surface of the 96 pegs.
Duplicate 0.01 or 0.005 mL aliquots of ten fold serial dilution of each well, were spread on MHA plate and colonies were read for viable cell counting after 24 hours of incubation.

[20] = test system: fresh human erythrocytes; format: cell-based
Method: The haemolysis assay was adapted from the method of Shin et al. (Ref. 12). Fresh human erythrocytes were used to test the haemolytic activities of the peptides. Whole blood was collected in a sterile tube with a 4% w/v sodium citrate solution (in a 1:10 ratio sodium citrate:whole blood), put in ice and centrifuged at 1000 g for 5 minutes at 4° C.
The supernatant, including the leucocytes above the erythrocyte pellet, was removed carefully and discarded. Intact erytrocytes were washed three times with 2 volumes (1 mL) of prechilled pyrogen-free saline (PBS 1×). Erythrocyte suspensions were adjusted to 0.8% (8 ul in 1 mL or 160 uL in 20 mL) of PBS 1×. […]
Subsequently, intact erythrocyte were pelletted by centrifugation at 1000 g for 5 minutes at 4° C. One hundred microliters of supernatant from each well was transferred accordingly to a new 96-well microtiter plate, and the amount of haemoglobin released into the supernatant was determined by reading the absorbance at 414 nm against a reference wavelength of 490 nm. […]
The haemolysis was determined by two different assays as described in Example VIII. In Tables 7-9 all haemolysis percentage values, determined by UV-VIS spectrophotometry, are reported. […]

[21] = IP administration, up to the highest dose of 40 mg/kg

With `CC[C@H](C)[C@H](NC(=O)[C@H](CCCCN)NC(=O)[C@H](CCCCN)NC(=O)[C@@H](N)Cc1c[nH]c2ccccc12)C(=O)N[C@@H](CCCNC(=N)N)C(=O)N[C@H](C(=O)N[C@@H](CCCNC(=N)N)C(=O)N[C@@H](CC(C)C)C(=O)N[C@@H](CO)C(=O)N[C@@H](C)C(=O)NCCCC[C@H](NC(=O)[C@H](C)NC(=O)[C@H](CO)NC(=O)[C@H](CC(C)C)NC(=O)[C@H](CCCNC(=N)N)NC(=O)[C@@H](NC(=O)[C@H](CCCNC(=N)N)NC(=O)[C@@H](NC(=O)[C@H](CCCCN)NC(=O)[C@H](CCCCN)NC(=O)[C@@H](N)Cc1c[nH]c2ccccc12)[C@@H](C)CC)C(C)C)C(=O)NCCCCCCCC(N)=O)C(C)C` [ID24, (H-W-KKIRVRLSA)2-Lys-8-Aoa-NH2] (I: H-WKKIRVRLSAK[Aoc]-NH2 / II: H-WKKIRVRLSA; amide I:11-II:C) the “MIC (ug/mL) E. coli” value [1] was 4 µg/mL (≈ 1.45 µM), the CC50 at 24 h [2] was 156 nM and the CC50 at 24 h ([2]; HeLa, 24 hours incubation, MTT, read-out: CC50 ID24) was 430 µg/mL. The “MIC (ug/mL) P. aeruginosa” value [3] was 32 µg/mL (≈ 11.6 µM), the MIC [4] was 4 µg/mL (≈ 1.45 µM) and the MIC [5] was >128 µg/mL. For the same compound, the “MIC Range” value [5] was >128 µg/mL, the “MIC Range” value [6] was 8 to 16 µg/mL and the “MIC Range” value [7] was 4 to 16 µg/mL. The “MIC Range” value [8] was 16 to 32 µg/mL, the “MIC Range” value [9] was 4 to 32 µg/mL and the “MIC Range” value [10] was 8 to 32 µg/mL. For the same compound, the “MIC Range” value [11] was 8 to 16 µg/mL, the MIC [12] was >128 µg/mL and the MIC [13] was 32 µg/mL (≈ 11.6 µM). The “MIC Range” value [14] was 4 to 16 µg/mL, the “symptoms and behavioural alterations (Irwin Test)” value ([15]; 20 mg/kg single intraperitoneal injection) was “no behavioural alterations” and the “symptoms and behavioural alterations (Irwin Test)” value ([15]; 40 mg/kg single intraperitoneal injection) was “no behavioural alterations”. The adverse symptoms [15, 21] was “No adverse symptoms”, the deaths [15, 21] was “no deaths” and the CC50 at 24 h [16] was 160 nM. The CC50 at 24 h ([16]; HaCat, 24 hours incubation, MTT, read-out: CC50 ID24) was 442 µg/mL, the “MIC value on E. coli EC47 strain” value [17] was 2 µg/mL (≈ 0.724 µM) and the CC50 at 24 h [18] was 78 nM. For the same compound, the CC50 at 24 h ([18]; HepG2, 24 hours incubation, MTT, read-out: CC50 ID24) was 215 µg/mL and the “percentage of inhibition of bacteria biofilm” value [19] was 88.7-99.9%.

For Triton X 100, the “Haemolysis, %” value [20] was 100.0%.
